Source: ChEMBL document CHEMBL6182943, “Identification of 4'-Thiouridine as an Orally Available Antiviral Agent Targeting Both RdRp and NiRAN Functions of SARS-CoV-2 Nsp12” (J Med Chem, 2025)
Activity calls are given as the source filed them. The calls are words filed in the database; no cut-off is given here.

What was measured:
[1] = Cytotoxicity against human H1-HeLa cells assessed as reduction in cell viability incubated for 72 hrs; type: toxicity, cell-based
rhinovirus B14 = assay: Antiviral activity against Human rhinovirus B14 infected in human H1-HeLa cells incubated for 72 hrs; type: functional, organism-based; conditions: Rhinovirus B
[2] = Selectivity index, ratio of CC50 for cytotoxicity against human H1-HeLa cells to EC50 for antiviral activity against Human rhinovirus B14 infected in human H1-HeLa cells; type: toxicity, cell-based; conditions: read-out: Ratio CC50/EC50
Influenza A virus (H1N1) = assay: Antiviral activity against Influenza A virus A/Puerto Rico/8/34 (H1N1) infected in MDCK cells assessed as reduction in virus-induced cytopathic effect incubated for 3 days in presence of TPCK-treated trypsin by MTT assay; type: functional, organism-based; conditions: 72 h
[3] = MRTinfinity in male ICR mouse at 5 mg/kg, iv measured after 24 hrs by LC-MS/MS analysis; type: ADME, organism-based; conditions: in vivo
Influenza A virus = assay: Antiviral activity against Influenza A virus A/Hong Kong/8/68 (H3N2) infected in MDCK cells assessed as reduction in virus-induced cytopathic effect incubated for 3 days in presence of TPCK-treated trypsin by MTT assay; type: functional, organism-based; conditions: 72 h
SARS-CoV-2 [4] = assay: Antiviral activity against SARS-CoV-2 infected in African green monkey Vero cells assessed as reduction in viral N protein level at 1 to 10 uM measured after 1 day by Western blot analysis relative to control; type: functional, Severe acute respiratory syndrome coronavirus 2; parameters: scale not given: the % may be the effect or the level left; conditions: dose 1-10 µM
[5] = Cytotoxicity against human Huh-7 cells assessed as reduction in cell viability by MTT-based cell viability assay; type: toxicity
SARS-CoV-2 [6] = assay: (§1) Antiviral activity against SARS-CoV-2 infected in african green monkey Vero cells assessed as reduction in number of spike-protein expressing cells at 30 uM pre-infected for 30 mins followed by compound addition and measured 48 hrs post-infection by DAPI staining based immunofluorescence analysis relative to control; type: functional, Severe acute respiratory syndrome coronavirus 2; parameters: scale not given: the % may be the effect or the level left; conditions: time 47.5 hrs
[7] = Cytotoxicity against African green monkey Vero cells assessed as reduction in cell viability incubated for 48 hrs by MTT assay; type: toxicity, cell-based; conditions: chlorocebus sabaeus
Human coronavirus NL63 = assay: Antiviral activity against HCoV-NL63 infected in LLC-MK2 cells assessed as inhibition of virus-induced cytopathic effect measured 2 to 7 days post infection by MTT-based cell viability assay; type: functional, organism-based
[8] = test system: Middle East respiratory syndrome-related coronavirus; assay: Antiviral activity against MERS-CoV KOR/KNIH/002_05_2015 infected in human Huh-7 cells assessed as inhibition of virus-induced cytopathic effect measured 2 to 7 days post infection by MTT-based cell viability assay; type: functional, organism-based; conditions: KOR/KNIH/002_05_2015, Huh-7
[9] = Cytotoxicity against human Calu-3 cells assessed as reduction in cell viability incubated for 48 hrs by MTT assay; type: toxicity, cell-based
[10] = AUCinfinity in male ICR mouse at 10 mg/kg, po measured after 24 hrs by LC-MS/MS analysis; type: ADME, organism-based; conditions: in vivo
[11] = AUClast in male ICR mouse at 10 mg/kg, po measured after 24 hrs by LC-MS/MS analysis; type: ADME, organism-based; conditions: in vivo
[12] = Cytotoxicity against rhesus monkey LLC-MK2 cells assessed as reduction in cell viability by MTT-based cell viability assay; type: toxicity, Macaca mulatta
[13] = MRTlast in male ICR mouse at 10 mg/kg, po measured after 24 hrs by LC-MS/MS analysis; type: ADME, organism-based; conditions: in vivo
[14] = Clearance in male ICR mouse at 5 mg/kg, iv measured after 24 hrs by LC-MS/MS analysis; type: ADME, organism-based; conditions: in vivo
SARS-CoV-2 [15] = assay: (§2) Antiviral activity against SARS-CoV-2 infected in hACE2 expressing female B6.Cg-Tg(K18-ACE2)2Prlmn/J mouse model assessed as survival rate at 100 mg/kg, po preadministered twice daily for 4 days at 8 hrs interval with four hours before and after viral challenge and measured 14 days post viral challenge relative to control; type: functional; conditions: Severe acute respiratory syndrome coronavirus 2, 336 h, time 14 day
SARS-CoV-2 [16] = assay: Antiviral activity against SARS-CoV-2 infected in african green monkey Vero cells assessed as reduction in number of spike-protein expressing cells pre-infected for 30 mins followed by compound addition and measured 48 hrs post-infection by DAPI staining based immunofluorescence analysis; type: functional, organism-based; conditions: Severe acute respiratory syndrome coronavirus 2, Vero
SARS-CoV-2 [17] = assay: Antiviral activity against SARS-CoV-2 infected in African green monkey Vero cells assessed as reduction in viral N protein level measured after 1 day by Western blot analysis; type: functional, organism-based; conditions: Severe acute respiratory syndrome coronavirus 2, dose 0.1-10 µM
SARS-CoV-2 [18] = assay: Antiviral activity against SARS-CoV-2 infected in african green monkey Vero cells assessed as nuclear occupancy at 30 uM pre-infected for 30 mins followed by compound addition and measured 48 hrs post-infection by DAPI staining based immunofluorescence analysis relative to control; type: functional, Severe acute respiratory syndrome coronavirus 2; conditions: time 47.5 hrs
[19] = Oral bioavailability in male ICR mouse at 10 mg/kg measured after 24 hrs by LC-MS/MS analysis; type: ADME, organism-based; conditions: in vivo
[20] = Cmax in male ICR mouse at 10 mg/kg, po measured after 24 hrs by LC-MS/MS analysis; type: ADME, organism-based; conditions: in vivo
dengue virus type 2 = assay: Antiviral activity against Dengue virus 2 infected in BHK-21 cells transfected with Renilla luciferase tagged viral subgenomic replicon incubated for 48 hrs by luciferase based assay; type: functional, organism-based; conditions: BHK-21, 48 h
[21] = Cytotoxicity against MDCK cells assessed as reduction in cell viability incubated for 3 days by MTT assay; type: toxicity, cell-based, Canis lupus familiaris; conditions: dog, time 3 day
[22] = MRTlast in male ICR mouse at 5 mg/kg, iv measured after 24 hrs by LC-MS/MS analysis; type: ADME, organism-based; conditions: in vivo
SARS-CoV-2 [23] = assay: as §2, with “reduction in body weight loss” for “survival rate”, “50” for “100”, “challenge” for “challenge relative to control”; type: functional, organism-based; conditions: Severe acute respiratory syndrome coronavirus 2, time 14.0 day
SARS-CoV-2 [24] = assay: as §1, with “SARS-CoV-2 Wuhan-like (hCoV-19/Korea/KCDC06/2020)” for “SARS-CoV-2”, “human Calu-3” for “african green monkey Vero”, “cells” for “cells at 30 uM”; type: functional, organism-based; conditions: Severe acute respiratory syndrome coronavirus 2, Wuhan-like (hCoV-19/Korea/KCDC06/2020)
Influenza B virus = assay: Antiviral activity against Influenza B virus B/Lee/40 infected in MDCK cells assessed as reduction in virus-induced cytopathic effect incubated for 3 days in presence of TPCK-treated trypsin by MTT assay; type: functional, organism-based; conditions: B/Lee/40, MDCK, 72 h
SARS-CoV-2 [25] = assay: as §2, with “reduction in body weight loss” for “survival rate”, “challenge” for “challenge relative to control”; type: functional, organism-based; conditions: Severe acute respiratory syndrome coronavirus 2, time 14.0 day
SARS-CoV-2 [26] = assay: as §1, with “SARS-CoV-2 Gamma (hCoV-19/Korea95637/KDCA/2021)” for “SARS-CoV-2”, “human Calu-3” for “african green monkey Vero”, “cells” for “cells at 30 uM”; type: functional, organism-based; conditions: Severe acute respiratory syndrome coronavirus 2, Gamma (hCoV-19/Korea95637/KDCA/2021)
SARS-CoV-2 [27] = assay: as §1, with “SARS-CoV-2 Omicron (hCoV-19/Korea/KDCA447321/2021)” for “SARS-CoV-2”, “human Calu-3” for “african green monkey Vero”, “cells” for “cells at 30 uM”; type: functional, organism-based; conditions: Severe acute respiratory syndrome coronavirus 2, Omicron (hCoV-19/Korea/KDCA447321/2021)
[28] = Terminal half-life in male ICR mouse at 10 mg/kg, po measured after 24 hrs by LC-MS/MS analysis; type: ADME, organism-based; conditions: in vivo, read-out: beta t1/2 (converted)
[29] = AUClast in male ICR mouse at 5 mg/kg, iv measured after 24 hrs by LC-MS/MS analysis; type: ADME, organism-based; conditions: in vivo
[30] = AUCinfinity in male ICR mouse at 5 mg/kg, iv measured after 24 hrs by LC-MS/MS analysis; type: ADME, organism-based; conditions: in vivo
[31] = MRTinfinity in male ICR mouse at 10 mg/kg, po measured after 24 hrs by LC-MS/MS analysis; type: ADME, organism-based; conditions: in vivo
[32] = Terminal half-life in male ICR mouse at 5 mg/kg, iv measured after 24 hrs by LC-MS/MS analysis; type: ADME, organism-based; conditions: in vivo, read-out: beta t1/2 (converted)
SARS-CoV-2 [33] = assay: as §2, with “reduction in body weight loss” for “survival rate”, “9” for “14”, “challenge” for “challenge relative to control”; type: functional, organism-based; conditions: Severe acute respiratory syndrome coronavirus 2, time 9.0 day
[34] = Tmax in male ICR mouse at 10 mg/kg, po measured after 24 hrs by LC-MS/MS analysis; type: ADME, organism-based; conditions: in vivo
SARS-CoV-2 [35] = assay: Antiviral activity against SARS-CoV-2 infected in African green monkey Vero cells assessed as reduction in viral RNA copy number at 0.1 to 10 uM measured after 1 day by qRT-PCR analysis; type: functional, organism-based; conditions: Severe acute respiratory syndrome coronavirus 2, dose 0.1-10 µM
[36] = Cytotoxicity against golden hamster BHK-21 cells assessed as reduction in cell viability by MTT assay; type: toxicity, cell-based, Mesocricetus auratus
SARS-CoV-2 [37] = assay: as §1, with “SARS-CoV-2 Delta (hCoV-19/Korea/KDCA119861/2021)” for “SARS-CoV-2”, “human Calu-3” for “african green monkey Vero”, “cells” for “cells at 30 uM”; type: functional, organism-based; conditions: Severe acute respiratory syndrome coronavirus 2, Delta (hCoV-19/Korea/KDCA119861/2021)
[38] = Cytotoxicity against HEK293T cells assessed as reduction in cell viability measured after 48 hrs by MTT assay; type: toxicity, cell-based, HEK-293T; conditions: human
Zaire ebolavirus = assay: Antiviral activity against Zaire Ebola virus infected in HEK293T cells transfected with viral replication protein and Renilla luciferase pre-infected for 4 hrs followed by compound addition and measured after 48 hrs by Dual-luciferase reporter assay; type: functional, organism-based; conditions: HEK-293T

`CCOC(=O)/C=C/[C@H](C[C@@H]1CCNC1=O)NC(=O)[C@@H](CC(=O)[C@@H](NC(=O)c1cc(C)on1)C(C)C)Cc1ccc(F)cc1` showed a CC50 at 72 h [1] of over 100 µM, an EC50 (rhinovirus B14) of 0.57 µM and a selectivity ratio [2] of over 176.
In the case of `O=c1ccn([C@@H]2S[C@H](CO)[C@@H](O)[C@H]2O)c(=O)[nH]1`, the EC50 (Influenza A virus (H1N1)) is reported as 13.4 µM, the MRT inf [3] is reported as 11.4 h and the EC50 (Influenza A virus) is reported as 15.3 µM. It also gave an Activity (SARS-CoV-2 [4]) of 100%, a CC50 [5] of over 100 µM and an Activity (SARS-CoV-2 [6]) of over 80%. For the same compound, the CC50 at 48 h [7] was over 100 µM, the EC50 (Human coronavirus NL63) was 4.53 µM and the EC50 [8] was 4.04 µM. The CC50 at 48 h [9] was over 100 µM, the AUC(0-inf) [10] was 43.6 µg·h/mL and the AUC(0-t) at 24 h [11] was 38 µg·h/mL. For the same compound, the CC50 [12] was over 100 µM, the MRT last at 24 h [13] was 6.84 h and the clearance [14] was 0.25 L/h/kg. The survival at 100 mg/kg (SARS-CoV-2 [15]) was 40%, the EC50 (SARS-CoV-2 [16]) was 1.71 µM and the Activity (SARS-CoV-2 [17]) was “Dose-dependent-effect”. The Activity (SARS-CoV-2 [18]) was over 80%, the bioavailability [19] was 109% and the Cmax [20] was 4.98 µg/mL. The EC50 (dengue virus type 2) was 42 µM, the CC50 at 72 h [1] was over 100 µM and the CC50 at 72 h [21] was over 100 µM. The MRT last at 24 h [22] was 7.16 h, the Activity (SARS-CoV-2 [23]) was “inactive” and the EC50 (SARS-CoV-2 [24]) was 4.08 µM. For the same compound, the EC50 (Influenza B virus) was 20.4 µM, the Activity (SARS-CoV-2 [25]) was “Active” and the EC50 (SARS-CoV-2 [26]) was 3.48 µM. For the same compound, the EC50 (SARS-CoV-2 [27]) was 2.66 µM, the half-life [28] was 8.2 h and the AUC(0-t) at 24 h [29] was 17.5 µg·h/mL. It also gave an EC50 (rhinovirus B14) of 23.7 µM, an AUC(0-inf) [30] of 20.5 µg·h/mL and an MRT inf [31] of 10.5 h. The half-life [32] was 8.87 h, the Activity (SARS-CoV-2 [33]) was “Active” and the Tmax [34] was 1 h. The Activity (SARS-CoV-2 [35]) was “Active”, the CC50 [36] was 93.7 µM and the EC50 (SARS-CoV-2 [37]) was 7.6 µM. For the same compound, the CC50 at 48 h [38] was 81.1 µM and the EC50 (Zaire ebolavirus) was 33 µM.
